Data on 26 molecules can be found in patent US20240270737A1, “SMALL MOLECULAR INHIBITORS OF STING SIGNALING COMPOSITIONS AND METHODS OF USE” (STINGINN INC., priority 2021, published 2024).

Bounds are passed on as bounds.

For assay [1], the system named is IFNβ expression (type I IFNβ promoter driving luciferase). The assay can be described thus: IFNβ promoter luciferase assay in hTERT-pIFNβ-Glu cells transfected with ISD. The assay is classed as cell-based, human. The following applies: Homo sapiens. Here is the method:
Inhibition of IFNβ expression was measured by Luciferase induction at 24 hours after transfection of ISD, DMSO is shown (230), ISD treatment only (220) was used as a control, according to an embodiment of the invention;
Inhibition of IFNβ expression was measured by Luciferase induction at 24 hours after transfection of ISD, Mock is shown (210), ISD treatment only (220) was used as a control, according to an embodiment of the invention;
Identification of small molecule inhibitors of STING. In the presence of cytosolic DNA species, STING becomes activated to drive the transcription of cytokines such as type I IFN. Compounds binding to STING via TSA were subsequently examined for their ability to prevent cytosolic DNA species from activating the type I interferon (IFN) promoter, using a live cell assay. This assay comprised immortalized human fibroblasts (hTERT) that were stably transfected with the type I IFN promoter driving luciferase as well as the CMV promoter driving SEAP (hTERT-pIFNβ-Glu). The live cell assay has previously been disclosed in PCT/US2019/025380 entitled IFN-Beta Reporter System for Immortalized Primary Cells inventor Glen N. Barber, which was filed Apr. 2, 2018 and published as WO2019195285, and which is herein incorporated by reference in its entirety and for all purposes. The ability of the small molecules to prevent activation of the type I IFN promoter and the transcription of luciferase, but not SEAP in response to cytosolic DNA species was assessed. The activation of STING, typically by CDNs, in turn activates the transcription factors NF-κB and IRF3, both of which are required to induce the transcriptional stimulation of the Type I IFN promoter, but not the CMV promoter as IRF3 and NF-kB transcription factor binding sites are not contained in the CMV promoter. The assay identified the small molecule Compound W1 in the first screen (HTS), where the level of luciferase was not able to activate the type I IFN promoter or induce the expression of luciferase (see Table I and Table II).
Inhibition of IFNβ expression was measured by Luciferase induction at 24 hours after transfection of ISD. ISD only treatment was used as control.
Inhibition of IFNβ expression was measured by Luciferase induction at 24 hours after transfection of ISD, Mock is shown (210), ISD treatment only (220) was used as a control.
Luciferase assay: hTERT-BJ1 Telomerase Fibroblasts stably expressing the luciferase gene under the control of the interferon-beta promoter and SEAP gene under control of the CMV promoter) (hTERT-pIFNβ-Glu) were generated by the Barber laboratory. Luciferase assay was performed using Secrete-Pair Dual Luminescence Assay Kit from GeneCopoeia following the manufacturer's protocol.

For assay [2], the system named is pIRF3, pSTING. Briefly: Western blot of pIRF3, pSTING, pTBK1 after ISD transfection in hTERT cells. The assay is classed as cell-based, human. The following applies: Homo sapiens. How it is done:
FIG. 1C are photographs showing Western blot analysis of STING, phospho-TBK1 (pTBK1) and phospho-IRF3 (pIRF3) performed at 6 hours after ISD transfection with/without W1 treatment same as FIG. 1A, Mock is shown (210), ISD treatment only (220) was used as a control, according to an embodiment of the invention;
Immunoblot analysis: Equal amounts of proteins were resolved on sodium dodecyl sulfate (SDS)-Polyacrylamide gels and then transferred to polyvinylidene fluoride (PVDF) membranes (Millipore). After blocking with 5% Blocking Reagent, membranes were incubated with various primary antibodies (and appropriate secondary antibodies). The image was resolved using an enhanced chemiluminescence system ECL (Thermo Scientific) and detected by autoradiography (Kodak). Antibodies: rabbit polyclonal antibody against STING was developed in our laboratory as described previously in Ishikawa et al, 2008; other antibodies were obtained from following sources: β-actin (Sigma Aldrich), p-IRF3 (Cell Signaling), IRF3 (Santa Cruz Biotechnology), p-p65 (Cell Signaling), p65 (Cell Signaling), p-TBK1 (Cell Signaling), TBK1 (Abcam), cGAS (Cell Signaling).

For orientation: inhibition means the change of the read-out against control, counted positive when it falls. As to `COc1ccc(-c2nc(CN3CCN(c4cc(C)nc(N(C)C)n4)CC3)cs2)cc1` [Compound W7, 4-(4-{[2-(4-methoxyphenyl)-1,3-thiazol-4-yl]methyl}piperazin-1-yl)-N,N,6-trimethylpyrimidin-2-amine], the inhibition at 5 µM in assay [1] was -11%. Still for that read-out and setting: the figure for `COc1cc(N2CCN(Cc3csc(-c4ccc(OC)c(OC)c4)n3)CC2)nc(N(C)C)n1` [Compound W27, 4-(4-{[2-(3,4-dimethoxyphenyl)-1,3-thiazol-4-yl]methyl}piperazin-1-yl)-6-methoxy-N,N-dimethylpyrimidin-2-amine] is -64%. On the same count and under the same terms, in the case of `COc1ccc(-c2nc(CN3CCN(c4cc(C)nc(C(C)C)n4)CC3)cs2)cc1OC` [Compound W2] it was -4%; in that of `COc1ccc(-c2nc(CN3CCN(c4cc(C(C)C)nc(N(C)C)n4)CC3)cs2)cc1OC` [Compound W26, 4-(4-{[2-(3,4-dimethoxyphenyl)-1,3-thiazol-4-yl]methyl}piperazin-1-yl)-N,N-dimethyl-6-(propan-2-yl)pyrimidin-2-amine], -120%; in that of `CCN(C)c1nc(C)cc(N2CCN(Cc3csc(-c4ccc(OC)c(OC)c4)n3)CC2)n1` [Compound W21, 4-(4-{[2-(3,4-dimethoxyphenyl)-1,3-thiazol-4-yl]methyl}piperazin-1-yl)-N-ethyl-N,6-dimethylpyrimidin-2-amine], -84%. Consider `Cc1cc(N2CCN(Cc3cnc(-c4ccccc4)s3)CC2)nc(N(C)C)n1` [Compound W19, N,N,4-trimethyl-6-{4-[(2-phenyl-1,3-thiazol-5-yl)methyl]piperazin-1-yl}pyrimidin-2-amine], for which the inhibition at 10 µM in assay [2] is less than 10%. In addition, the inhibition at 5 µM in assay [1] was 76%. As for `Cc1cc(N2CCN(Cc3csc(-c4ccc(CC(F)(F)F)cc4)n3)CC2)nc(N(C)C)n1` [Compound W33, N.N.4-trimethyl-6-[4-({2-[4-(2.2.2-trifluoroethyl)phenyl]-1.3-thiazol-4-yl}methyl)piperazin-1-yl]pyrimidin-2-amine], the inhibition at 5 µM in assay [1] is 65%.

Regarding `Cc1cc(N2CCN(Cc3csc(-c4ccccc4)n3)CC2)nc(N(C)C)n1` [Compound W6, N,N,4-trimethyl-6-{4-[(2-phenyl-1,3-thiazol-4-yl)methyl]piperazin-1-yl}pyrimidin-2-amine], the inhibition at 5 µM in assay [1] is -34%. On the same count and under the same terms, in the case of `Cc1cc(N2CCN(Cc3cnc(-c4ccccc4)o3)CC2)nc(N(C)C)n1` [Compound W17, N,N,4-trimethyl-6-{4-[(2-phenyl-1,3-oxazol-5-yl)methyl]piperazin-1-yl}pyrimidin-2-amine] it was 2%; in that of `Cc1cc(N2CCN(Cc3csc(-c4ccc(S(C)(=O)=O)cc4)n3)CC2)nc(N(C)C)n1` [Compound W12, 4-(4-{[2-(4-methanesulfonylphenyl)-1,3-thiazol-4-yl]methyl}piperazin-1-yl)-N,N,6-trimethylpyrimidin-2-amine], -40%; in that of `Cc1cc(N2CCN(Cc3coc(-c4ccccc4)n3)CC2)nc(N(C)C)n1` [Compound W18, N,N,4-trimethyl-6-{4-[(2-phenyl-1,3-oxazol-4-yl)methyl]piperazin-1-yl}pyrimidin-2-amine], -82%.

On to `Cc1cc(N2CCN(Cc3noc(-c4ccccc4)n3)CC2)nc(N(C)C)n1` [Compound W16, N,N,4-trimethyl-6-{4-[(5-phenyl-1,2,4-oxadiazol-3-yl)methyl]piperazin-1-yl}pyrimidin-2-amine], for which the inhibition at 5 µM in assay [1] was found to be 26%. The same measure, in the same setting: the figure for `COc1ccc(-c2nc(CN3CCN(c4cc(C(F)(F)F)nc(N(C)C)n4)CC3)cs2)cc1OC` [Compound W28, 4-(4-{[2-(3,4-dimethoxyphenyl)-1,3-thiazol-4-yl]methyl}piperazin-1-yl)-N,N-dimethyl-6-(trifluoromethyl)pyrimidin-2-amine] is -89%; for `Cc1cc(N2CCN(Cc3csc(-c4ccc(C(F)(F)Cl)cc4)n3)CC2)nc(N(C)C)n1` [Compound W34, 4-[4-({2-[4-(chlorodifluoromethyl)phenyl]-1.3-thiazol-4-yl}methyl)piperazin-1-yl]-N.N.6-trimethylpyrimidin-2-amine] it is 50%.

On to `COc1cccc(-c2nc(CN3CCN(c4cc(C)nc(N(C)C)n4)CC3)cs2)c1` [Compound W8, 4-(4-{[2-(3-methoxyphenyl)-1,3-thiazol-4-yl]methyl}piperazin-1-yl)-N,N,6-trimethylpyrimidin-2-amine], for which, in assay [1], the inhibition at 5 µM was -59%. `Cc1cc(N2CCN(Cc3csc(-c4ccc5c(c4)OCO5)n3)CC2)nc(N(C)C)n1` [Compound W9, 4-(4-{[2-(2H-1,3-benzodioxol-5-yl)-1,3-thiazol-4-yl]methyl}piperazin-1-yl)-N,N,6-trimethylpyrimidin-2-amine]: the inhibition at 5 µM in assay [1] is -40%. On the same count and under the same terms, in the case of `Cc1cc(N2CCN(Cc3csc(-c4ccc(C#N)cc4)n3)CC2)nc(N(C)C)n1` [Compound W10, 4-[4-({4-[2-(dimethylamino)-6-methylpyrimidin-4-yl]piperazin-1-yl}methyl)-1,3-thiazol-2-yl]benzonitrile] it was -62%; in that of `Cc1cc(N2CCN(Cc3csc(-c4ccc(C(C)(F)F)cc4)n3)CC2)nc(N(C)C)n1` [Compound W32, 4-[4-({2-[4-(1.1-difluoroethyl)phenyl]-1.3-thiazol-4-yl}methyl)piperazin-1-yl]-N.N.6-trimethylpyrimidin-2-amine], 70%; in that of `CCc1cc(N2CCN(Cc3csc(-c4ccc(OC)c(OC)c4)n3)CC2)nc(N(C)C)n1` [Compound W25, 4-(4-{[2-(3,4-dimethoxyphenyl)-1,3-thiazol-4-yl]methyl}piperazin-1-yl)-6-ethyl-N,N-dimethylpyrimidin-2-amine], -126%. Still for that read-out and setting: the figure for `COc1cc(C(F)(F)F)ccc1-c1nc(CN2CCN(c3cc(C)nc(N(C)C)n3)CC2)cs1` [Compound W31, 4-[4-({2-[2-methoxy-4-(trifluoromethyl)phenyl]-1.3-thiazol-4-yl}methyl)piperazin-1-yl]-N.N.6-trimethylpyrimidin-2-amine] is 60%; for `COc1ccc(-c2nc(CN3CCN(c4cc(C)nc(N5CCCC5)n4)CC3)cs2)cc1OC` [Compound W24, 4-(4-{[2-(3,4-dimethoxyphenyl)-1,3-thiazol-4-yl]methyl}piperazin-1-yl)-6-methyl-2-(pyrrolidin-1-yl)pyrimidine] it is -26%; for `Cc1cc(N2CCN(Cc3csc(-c4ccc(C5CC5)cc4)n3)CC2)nc(N(C)C)n1` [Compound W30, 4-(4-{[2-(4-cyclopropylphenyl)-1.3-thiazol-4-yl]methyl}piperazin-1-yl)-N.N.6-trimethylpyrimidin-2-amine] it is 50%. Same read-out and setting: the figure for `Cc1cc(N2CCN(Cc3csc(-c4ccc(C(C)C)cc4)n3)CC2)nc(N(C)C)n1` [Compound W29, N.N.4-trimethyl-6-[4-({2-[4-(propan-2-yl)phenyl]-1.3-thiazol-4-yl}methyl)piperazin-1-yl]pyrimidin-2-amine] is 50%; for `CNc1nc(C)cc(N2CCN(Cc3csc(-c4ccc(OC)c(OC)c4)n3)CC2)n1` [Compound W23, 4-(4-{[2-(3,4-dimethoxyphenyl)-1,3-thiazol-4-yl]methyl}piperazin-1-yl)-N,6-dimethylpyrimidin-2-amine] it is -33%; for `Cc1cc(N2CCN(Cc3csc(-c4ccc5c(c4)OCC5)n3)CC2)nc(N(C)C)n1` [Compound W35] it is 0%.

For `CCN(CC)c1nc(C)cc(N2CCN(Cc3csc(-c4ccc(OC)c(OC)c4)n3)CC2)n1` [Compound W22, 4-(4-{[2-(3,4-dimethoxyphenyl)-1,3-thiazol-4-yl]methyl}piperazin-1-yl)-N,N-diethyl-6-methylpyrimidin-2-amine], the inhibition at 5 µM in assay [1] is 28%.
